Test [1] has as its system K562 cells. Nature of the test: K562 cell proliferation assay (CellTiter-Glo). The format is cell-based. The following applies: Homo sapiens, K562, 72 h, CellTiter-Glo viability, read-out: Cell Line (IC50, nM) K562. The protocol: (§1) K562 and HL60 cells, cultured in Iscove's Modified Dulbecco's Media (IMDM) supplemented with 10% FBS, were harvested at 50-80% confluency and plated at 2,000 cells per well (K562) or 1,500 cells per well (HL60) in 384-well tissue culture plates. A subset of wells contained media only (low control, LC). Compounds were serially diluted in DMSO. 40 nL of compound or DMSO only (high control, HC) were added to each well using an Echo 550 liquid handler (Labcyte). The plates were placed in a 37° C. incubator with 5% CO2 for 72 hours. Cell viability was measured using a CellTiter-Glo luminescent cell viability assay (Promega), which allows for relative quantification of metabolically active cells by luminescence-based measurements of intracellular ATP concentrations. Briefly, plates were removed from the incubator and equilibrated for 15 minutes at room temperature prior to the addition of 40 μL of CellTiter-Glo reagent. Plates were then incubated for 30 minutes at room temperature. Luminescence was measured using an EnSpire plate reader (Perkin Elmer). As noted above, luminescence values from wells with DMSO only or media without cells were used as high and low controls (HC and LC), respectively. Normalized percent viability was calculated as follows: percent viability=100×(Lumsample−LumLC)/(LumHC−LumLC).
A general note: ATP-based viability assays read luminescence as a measure of living cells.

Test [2] addresses ABL1 (T315I) (Homo sapiens, UniProt P00519, T315I). The test is described as follows: Luminescence-based ABL kinase assay (ADP-Glo, 300 μM ATP), T315I mutant. Type of test: biochemical. How it is done:
(§2) Kinase activity of ABL1 was measured using the ADP-Glo system (Promega), which measures formation of ADP using a luminescence-based method. Compounds were serially diluted in DMSO. 20 nL of compound or DMSO only (high control, HC) were added to a 384-well plate (OptiPlate-384, PerkinElmer) using an Echo550 liquid handler (Labcyte). 15 μL of kinase solution (10 mM MgCl2, 0.01% Brij-35, 2 mM DTT, 0.05% BSA, 1 mM EGTA, 50 mM HEPES pH 7.5, and 3.325 nM ABL1 [Carna Biosciences]) were added to each well of the 384-well plate containing the compounds. No enzyme control wells were included (low control, LC). The plate was incubated at room temperature for 30 minutes. 5 μL of a second solution containing 10 mM MgCl2, 0.01% Brij-35, 2 mM DTT, 0.05% BSA, 1 mM EGTA, 50 mM HEPES pH 7.5, 6 μM Peptide 2 (Perkin Elmer, Cat No 760346), and 1.2 mM ATP were added to each well to start the kinase reaction. The plate was incubated for 90 minutes at room temperature. 20 μL of ADP-Glo reagent (Promega) were then added to each well and the plate was incubated for 40 minutes at room temperature. 40 μL of kinase detection reagent (Promega) was added to each well and the plate was incubated for an additional 45 minutes at room temperature. During this step, ADP was converted to ATP, a substrate for luciferase, to produce luminescence signal. Luminescence was measured on an Envision plate reader (Perkin Elmer). Luminescence signal positively correlates with kinase activity. The percent kinase activity was calculated as follows: percent kinase activity=100×(Lumsample−LumLC)/(LumHC−LumLC). As noted above, DMSO only and no enzyme wells were used as high and low controls, respectively. IC50 values were calculated using the XLFit software.
In general terms: ADP-Glo first removes unused ATP, then detects ADP through luciferase.

Test [3] has as its target T1, ABL1 (Homo sapiens, UniProt P00519).
T1 construct: purchased Carna Biosciences
Nature of the test: Luminescence-based ABL kinase assay (ADP-Glo, 300 μM ATP). The format is biochemical. The protocol: as §2

Test [4] relates to HL60 cells. Nature of the test: HL60 cell proliferation assay (CellTiter-Glo). Type of test: cell-based. The following applies: Homo sapiens, HL-60, 72 h, CellTiter-Glo viability, read-out: Cell Line (IC50, nM) HL60. How it is done: as §1

Bounds are passed on as bounds.

As a reminder, the IC50 is the point on the concentration scale where inhibition reaches its midpoint. Consider `COc1ncccc1-c1c(F)[nH]c2nc(NC(=O)[C@@H]3C[C@@H]3F)ccc12` [Compound 68, (1S,2S)-2-fluoro-N-[2-fluoro-3-(2-methoxypyridin-3-yl)-1H-pyrrolo[2,3-b]pyridin-6-yl]cyclopropane-1-carboxamide], for which the IC50 in test [1] came to 607 nM; in test [2], 19.2 nM; in test [3], 78.2 nM; in test [4], 3690 nM.
As to `COc1cc2ncoc2cc1-c1c[nH]c2nc(NC(=O)[C@@H]3C[C@@H]3F)ccc12` [Compound 87, (1S,2S)-2-fluoro-N-(3-(5-methoxybenzo[d]oxazol-6-yl)-1H-pyrrolo[2,3-b]pyridin-6-yl)cyclopropane-1-carboxamide], the IC50 was 94.1 nM in test [1], 6.59 nM in test [2], 9.54 nM in test [3] and more than 10000 nM in test [4].
Take `COc1nc(C)nc(OC)c1-c1c[nH]c2nc(NC(=O)[C@@H]3C[C@@H]3F)ccc12` [Compound 142, (1S,2S)—N-(3-(4,6-dimethoxy-2-methylpyrimidin-5-yl)-1H-pyrrolo[2,3-b]pyridin-6-yl)-2-fluorocyclopropane-1-carboxamide]: the IC50 in test [1] is 34.5 nM; in test [2] it was 14.3 nM; in test [3] it was 14.6 nM; in test [4], more than 10000 nM.
Take `COc1c(-c2n[nH]c3nc(NC(=O)[C@@H]4C[C@@H]4F)ccc23)ccc2[nH]cnc12` [Compound 90, (1S,2S)-2-fluoro-N-[3-(4-methoxy-1H-1,3-benzodiazol-5-yl)-1H-pyrazolo[3,4-b]pyridin-6-yl]cyclopropane-1-carboxamide]: the IC50 is 1100 nM in test [1], 15 nM in test [2], 21.7 nM in test [3] and more than 10000 nM in test [4].
On the same counts, the results for `O=C(Nc1ccc2c(-c3ccccc3OC3CC3)n[nH]c2n1)[C@@H]1C[C@@H]1F` [Compound 94, (1S,2S)—N-(3-(2-cyclopropoxyphenyl)-1H-pyrazolo[3,4-b]pyridin-6-yl)-2-fluorocyclopropane-1-carboxamide] are 55.6 nM, 6.36 nM, 10.8 nM and 7580 nM.
Turning to `COc1cccc(OC)c1-c1c[nH]c2nc(NC(=O)NCCN(C)C)ccc12` [Compound 132, 1-[3-(2,6-dimethoxyphenyl)-1H-pyrrolo[2,3-b]pyridin-6-yl]-3-[2-(dimethylamino)ethyl]urea], the IC50 is 234 nM in test [1], 97.5 nM in test [2], 143 nM in test [3] and more than 10000 nM in test [4].
Taken in the same sequence, the figures for `COc1ccccc1-c1c[nH]c2nc(NC(=O)NCCN3CCOCC3)ccc12` [Compound 43, 3-[3-(2-methoxyphenyl)-1H-pyrrolo[2,3-b]pyridin-6-yl]-1-[2-(morpholin-4-yl)ethyl]urea] were 779 nM, 15.6 nM, 91.1 nM and more than 10000 nM.
As for `COc1nc2[nH]cnc2cc1-c1c[nH]c2nc(NC(=O)[C@@H]3C[C@@H]3F)ccc12` [Compound 83, (1S,2S)-2-fluoro-N-(3-[5-methoxy-3H-imidazo[4,5-b]pyridin-6-yl]-1H-pyrrolo[2,3-b]pyridin-6-yl)cyclopropane-1-carboxamide], the 50% inhibitory concentration (IC50) was 48.8 nM in test [1], 1.74 nM in test [2], 1.52 nM in test [3] and more than 10000 nM in test [4].
Regarding `COc1c(-c2c[nH]c3nc(NC(=O)[C@@H]4C[C@@H]4F)ccc23)ccn2ncnc12` [Compound 115, (1S,2S)-2-fluoro-N-(3-[8-methoxy-[1,2,4]triazolo[1,5-a]pyridin-7-yl]-1H-pyrrolo[2,3-b]pyridin-6-yl)cyclopropane-1-carboxamide], the IC50 was 382 nM in test [1], 151 nM in test [2], 124 nM in test [3] and more than 10000 nM in test [4].
Consider `COc1ccc(F)c(OC)c1-c1c[nH]c2nc(NC(=O)[C@@H]3C[C@@H]3F)ccc12` [Compound 119, (1S,2S)-2-fluoro-N-[3-(3-fluoro-2,6-dimethoxyphenyl)-1H-pyrrolo[2,3-b]pyridin-6-yl]cyclopropane-1-carboxamide], for which the IC50 is 32.2 nM in test [1], 2.57 nM in test [2], 4.67 nM in test [3] and more than 10000 nM in test [4].
On the same counts, the results for `COc1nc2cn[nH]c2cc1-c1c[nH]c2nc(NC(=O)C3CC3)ccc12` [Compound 60, N-(3-[5-methoxy-1H-pyrazolo[4,3-b]pyridin-6-yl]-1H-pyrrolo[2,3-b]pyridin-6-yl)cyclopropanecarboxamide] are 5170 nM, 417 nM, 218 nM and more than 10000 nM.
On the same counts, the results for `COc1cc2cc[nH]c2cc1-c1c[nH]c2nc(NC(=O)C3CC3)ccc12` [Compound 17, N-[3-(5-methoxy-1H-indol-6-yl)-1H-pyrrolo[2,3-b]pyridin-6-yl]cyclopropanecarboxamide] are 229 nM, 28.6 nM, 55.1 nM and more than 10000 nM.
Consider `COc1nccc(OC2CC2)c1-c1c[nH]c2nc(NC(=O)[C@@H]3C[C@H]3OCCN(C)C)ccc12` [Compound 253], for which the IC50 in test [1] is 30.8 nM; in test [2], 8.81 nM; in test [3], 6.71 nM; in test [4] it was more than 10000 nM.
Taken in the same sequence, the figures for `COc1ncnc(OC)c1-c1c[nH]c2nc(NC(=O)[C@@H]3C[C@@H]3F)ccc12` [Compound 102, (1S,2S)—N-[3-(4,6-dimethoxypyrimidin-5-yl)-1H-pyrrolo[2,3-b]pyridin-6-yl]-2-fluorocyclopropane-1-carboxamide] were 48 nM, 17.8 nM, 12.5 nM and more than 10000 nM.
Taken in the same sequence, the figures for `COc1cccc(OC)c1-c1c[nH]c2nc(NC(=O)[C@@H]3C[C@@H]3F)ccc12` [Compound 118, (1S,2S)—N-[3-(2,6-dimethoxyphenyl)-1H-pyrrolo[2,3-b]pyridin-6-yl]-2-fluorocyclopropane-1-carboxamide] were 24.4 nM, 1.48 nM, 3.73 nM and more than 10000 nM.
Consider `COc1ncnc(OC)c1-c1c[nH]c2nc(NC(=O)NCCN3CCNCC3)ccc12` [Compound 138, 3-[3-(4,6-dimethoxypyrimidin-5-yl)-1H-pyrrolo[2,3-b]pyridin-6-yl]-1-[2-(piperazin-1-yl)ethyl]urea], for which the 50% inhibitory concentration (IC50) in test [1] was 527 nM; in test [2], 140 nM; in test [3], 51.2 nM; in test [4], more than 10000 nM.
On the same counts, the results for `O=C(NCCN1CCNCC1)Nc1ccc2c(-c3ccccc3OC3CC3)n[nH]c2n1` [Compound 136, 3-[3-(2-cyclopropoxyphenyl)-1H-pyrazolo[3,4-b]pyridin-6-yl]-1-[2-(piperazin-1-yl)ethyl]urea] are 333 nM, 54.5 nM, 27.4 nM and more than 10000 nM.
On the same counts, the results for `CCNC(=O)Nc1ccc2c(-c3ccccc3OC)c[nH]c2n1` [Compound 103, 3-ethyl-1-[3-(2-methoxyphenyl)-1H-pyrrolo[2,3-b]pyridin-6-yl]urea] are 751 nM, 32.5 nM, 99.2 nM and more than 10000 nM.
Take `O=C(Nc1ccc2c(-c3ccccc3Cl)c[nH]c2n1)C1CC1` [Compound 6, N-[3-(2-chlorophenyl)-1H-pyrrolo[2,3-b]pyridin-6-yl]cyclopropanecarboxamide]: the IC50 was 452 nM in test [1], 65.6 nM in test [2], 123 nM in test [3] and more than 10000 nM in test [4].
